Results: patent US9023789B2, “Amylin analogs and pharmaceutical compositions thereof” (Novo Nordisk A/S, priority 2012, dated 2015)
pIC50: −log10 of the molar value. ≈ marks a conversion by molar mass, not a printed value. Like-named read-outs stand apart in the source and are kept apart here. Numbered stars: 1 amine (or outer) side, 2 acyl side, 3 side chain; on linkers, the order of the positions; unused ones are H or OH. Bridge positions count the residues as written; N and C are the ends. Side chains are listed from the residue outwards. Peptide text beside a SMILES is read from it. * marks the point of attachment. C20 diacid = O=C(O)CCCCCCCCCCCCCCCCCCC(=O)*; γGlu = O=C(O)[C@H](CCC(=O)[*:2])N[*:1]

Key:
[1] = ASSAY (IV) determination of solubility; type: physicochemical
Outline: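 Polypeptide stock in water ([…]) was mixed 1:1 with 100 mM buffers: glycylglycine at pH 3.0, 4.0, 5.0 and bistrispropane at pH 6.0, 6.5, 7.0, 7.5, 8.0. After 18 hours at room temperature, samples were centrifuged and polypeptide concentration measured by UPLC.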

Sprague Dawley (SD) rats = experiment: ASSAY (I) efficacy testing on appetite (food intake) using an ad libitum fed rat model; type: in vivo; settings: rat
From the text: Sprague Dawley (SD) rats from Taconic Europe, Denmark are used for the experiments. The rats have a body weight 200-250 g at the start of experiment. The rats arrive at least 10-14 days before start of experiment to allow acclimatization to experimental settings. During this period the animals are handled at least 2 times. After arrival rats are housed individually for one week in a reversed light/dark phase (meaning that lights are off during daytime and on during nighttime) for two weeks. Since rats are normally active and eat their major part of their daily food intake during the dark period, rats are dosed in the morning right before lights are turned off. This set-up results in the lowest data variation and highst test sensitivity. The experiment is conducted in the rats' home cages and rats have free access to food and water throughout the acclimatization period and the experiment period. Each dose of derivative is tested in a group of 5-8 rats. A vehicle group of 6-8 rats is included in each set of testing. Rats are dosed once according to body weight with a 0.01-3 mg/kg solution administered intraperitoneally (ip), orally (po) or subcutaneously (sc). The time of dosing is recorded for each group. After dosing, the rats are returned to their home cages, where they then have access to food and water. The food consumption is recorded individually continuously by online registration or manually every hour for 7 hours, and then after 24 h and sometimes 48 h. At the end of the experimental session, the animals are euthanized.
The individual data are recorded in Microsoft excel sheets. Outliers are excluded after applying the Grubbs statistical evaluation test for outliers, and the result is presented graphically using the GraphPad Prism program.

rat calcitonin receptor = molecular target: T1, rat calcitonin receptor (Rattus norvegicus, UniProt P32214); experiment: ASSAY (VIII) binding to the rat calcitonin receptor; settings: Table 7, read-out: rCTR bind IC50
T1 construct: expressed in transfected cells; host or cells: BHK tk'ts 13 (transient, FuGENE 6), membranes
T1 sequence (P32214 25-479 isoform P32214-2 limits assumed): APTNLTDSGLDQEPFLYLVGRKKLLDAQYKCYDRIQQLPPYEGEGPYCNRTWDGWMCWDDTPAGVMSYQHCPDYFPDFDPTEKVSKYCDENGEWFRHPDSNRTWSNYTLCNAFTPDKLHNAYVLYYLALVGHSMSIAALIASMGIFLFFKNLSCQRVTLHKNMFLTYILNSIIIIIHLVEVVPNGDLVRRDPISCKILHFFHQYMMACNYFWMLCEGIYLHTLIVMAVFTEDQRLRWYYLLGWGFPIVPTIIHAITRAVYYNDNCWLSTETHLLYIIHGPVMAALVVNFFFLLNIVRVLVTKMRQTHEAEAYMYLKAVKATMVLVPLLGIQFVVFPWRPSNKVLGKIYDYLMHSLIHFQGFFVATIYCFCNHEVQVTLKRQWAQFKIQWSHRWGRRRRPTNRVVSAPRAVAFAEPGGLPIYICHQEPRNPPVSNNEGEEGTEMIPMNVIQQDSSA
Outline: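 Transfect BHK tk′ts 13 cells transiently with rat calcitonin receptor, culture in DMEM containing 10% FBS, collect cells about 48 hours later, then prepare membranes.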

[2] = bistrispropane buffer, pH 6.5, read-out: Solubility pH 6.5 Concentration
[3] = bistrispropane buffer, pH 7.5, read-out: Solubility pH 7.5 Concentration
[4] = bistrispropane buffer, pH 6.0, read-out: Solubility pH 6.0 Concentration
[5] = bistrispropane buffer, pH 7.0, read-out: Solubility pH 7.0 Concentration
[6] = bistrispropane buffer, pH 8.0, read-out: Solubility pH 8.0 Concentration
[7] = glycylglycine buffer, pH 3.0, read-out: Solubility pH 3.0 Concentration
[8] = glycylglycine buffer, pH 4.0, read-out: Solubility pH 4.0 Concentration
[9] = glycylglycine buffer, pH 5.0, read-out: Solubility pH 5.0 Concentration

## CC[C@H](C)[C@H](NC(=O)[C@H](C)NC(=O)CNC(=O)[C@H](Cc1ccccc1)NC(=O)[C@H](CC(N)=O)NC(=O)[C@@H]1CCCN1C(=O)[C@H](CO)NC(=O)[C@H](CO)NC(=O)[C@H](Cc1c[nH]cn1)NC(=O)[C@H](CCCNC(=N)N)NC(=O)[C@H](CC(C)C)NC(=O)[C@H](Cc1ccccc1)NC(=O)[C@H](CC(=O)O)NC(=O)[C@H](C)NC(=O)[C@H](CC(C)C)NC(=O)[C@H](CCCNC(=N)N)NC(=O)[C@H](CCC(N)=O)NC(=O)[C@@H](NC(=O)[C@H](C)NC(=O)[C@@H]1CSSC[C@H](NC(=O)[C@@H](N)CCCCNC(=O)CC[C@H](NC(=O)CC[C@H](NC(=O)CCCCCCCCCCCCCCCCCCC(=O)O)C(=O)O)C(=O)O)C(=O)N[C@@H](CC(N)=O)C(=O)N[C@@H]([C@@H](C)O)C(=O)N[C@@H](C)C(=O)N[C@@H]([C@@H](C)O)C(=O)N1)[C@@H](C)O)C(=O)N1CCC[C@H]1C(=O)N[C@@H](CO)C(=O)N[C@@H](CO)C(=O)N[C@H](C(=O)N[C@@H](CC(N)=O)C(=O)N[C@H](C(=O)NCC(=O)N[C@@H](CO)C(=O)N[C@@H](CC(=O)O)C(=O)N[C@H](C(=O)N[C@@H](Cc1ccc(O)cc1)C(N)=O)[C@@H](C)O)C(C)C)[C@@H](C)O [Example 2] (H-K([γGlu-γGlu-C20 diacid])CNTATCATQRLADFLRHSSPNFGAIPSSTNVGSDTY-NH2; disulfide 2-7; N-terminus assumed)
[1]; [2]
  solubility at 18 h: 190 µM (≈ 857 µg/mL)
[1]; [3]
  solubility at 18 h: ≥ 200 µM
[1]; [4]
  solubility at 18 h: ≥ 200 µM
[1]; [5]
  solubility at 18 h: ≥ 200 µM
[1]; [6]
  solubility at 18 h: ≥ 200 µM
[1]; [7]
  solubility at 18 h: ≥ 200 µM
[1]; [8]
  solubility at 18 h: ≥ 200 µM
[1]; [9]
  solubility at 18 h: ≥ 200 µM
Sprague Dawley (SD) rats; 3 nmol/kg, 0-24 h
  Food intake reduction 0-24 h 3 nmol/kg (%): 39%
Sprague Dawley (SD) rats; 3 nmol/kg, 24-48 h
  Food intake reduction 24-48 h 3 nmol/kg (%): 10%
Sprague Dawley (SD) rats; 0-24 h
  Food intake reduction 0-24 h 30 nmol/kg (%): 72%
Sprague Dawley (SD) rats; 24-48 h
  Food intake reduction 24-48 h 30 nmol/kg (%): 62%
Rat calcitonin receptor
  pIC50: 6.97

## CC[C@H](C)[C@H](NC(=O)[C@H](C)NC(=O)CNC(=O)[C@H](Cc1ccccc1)NC(=O)[C@H](CC(N)=O)NC(=O)[C@@H]1CCCN1C(=O)[C@H](CO)NC(=O)[C@H](CO)NC(=O)[C@H](Cc1c[nH]cn1)NC(=O)[C@H](CCCNC(=N)N)NC(=O)[C@H](CC(C)C)NC(=O)[C@H](Cc1ccccc1)NC(=O)[C@H](CC(N)=O)NC(=O)[C@H](C)NC(=O)[C@H](CC(C)C)NC(=O)[C@H](CCCNC(=N)N)NC(=O)[C@H](CCC(N)=O)NC(=O)[C@@H](NC(=O)[C@H](C)NC(=O)[C@@H]1CSSC[C@H](NC(=O)[C@H](CCCCN)NC(=O)COCCOCCNC(=O)COCCOCCNC(=O)CC[C@H](NC(=O)CCCCCCCCCCCCCCCCCCC(=O)O)C(=O)O)C(=O)N[C@@H](CC(N)=O)C(=O)N[C@@H]([C@@H](C)O)C(=O)N[C@@H](C)C(=O)N[C@@H]([C@@H](C)O)C(=O)N1)[C@@H](C)O)C(=O)N1CCC[C@H]1C(=O)N[C@@H](CO)C(=O)N[C@@H](CO)C(=O)N[C@H](C(=O)N[C@@H](CC(N)=O)C(=O)N[C@H](C(=O)NCC(=O)N[C@@H](CO)C(=O)N[C@@H](CC(N)=O)C(=O)N[C@H](C(=O)N[C@@H](Cc1ccc(O)cc1)C(N)=O)[C@@H](C)O)C(C)C)[C@@H](C)O [Example 24]
[1]; [2]
  solubility at 18 h: ≥ 200 µM
[1]; [3]
  solubility at 18 h: ≥ 200 µM
[1]; [4]
  solubility at 18 h: ≥ 200 µM
[1]; [5]
  solubility at 18 h: ≥ 200 µM
[1]; [6]
  solubility at 18 h: ≥ 200 µM
[1]; [7]
  solubility at 18 h: ≥ 200 µM
[1]; [8]
  solubility at 18 h: ≥ 200 µM
[1]; [9]
  solubility at 18 h: ≥ 200 µM
Sprague Dawley (SD) rats; 0-24 h
  Food intake reduction 0-24 h 30 nmol/kg (%): 22%
Sprague Dawley (SD) rats; 24-48 h
  Food intake reduction 24-48 h 30 nmol/kg (%): 1%
Rat calcitonin receptor
  pIC50: 6.46

## CC[C@H](C)[C@H](NC(=O)[C@H](C)NC(=O)CNC(=O)[C@H](Cc1ccccc1)NC(=O)[C@H](CC(N)=O)NC(=O)[C@@H]1CCCN1C(=O)[C@H](CO)NC(=O)[C@H](CO)NC(=O)[C@H](Cc1c[nH]cn1)NC(=O)[C@H](CCCNC(=N)N)NC(=O)[C@H](CC(C)C)NC(=O)[C@H](Cc1ccccc1)NC(=O)[C@H](CC(N)=O)NC(=O)[C@H](C)NC(=O)[C@H](CC(C)C)NC(=O)[C@H](CCCNC(=N)N)NC(=O)[C@H](CCC(N)=O)NC(=O)[C@@H](NC(=O)[C@H](C)NC(=O)[C@@H]1CSSC[C@H](NC(=O)[C@H](CCCCN)NC(=O)CC[C@H](NC(=O)CCCCCCCCCCCCCCCCCCC(=O)O)C(=O)O)C(=O)N[C@@H](CC(N)=O)C(=O)N[C@@H]([C@@H](C)O)C(=O)N[C@@H](C)C(=O)N[C@@H]([C@@H](C)O)C(=O)N1)[C@@H](C)O)C(=O)N1CCC[C@H]1C(=O)N[C@@H](CO)C(=O)N[C@@H](CO)C(=O)N[C@H](C(=O)N1CCC[C@H]1C(=O)N[C@H](C(=O)NCC(=O)N[C@@H](CO)C(=O)N[C@@H](CCC(=O)O)C(=O)N[C@H](C(=O)N[C@@H](Cc1ccc(O)cc1)C(N)=O)[C@@H](C)O)C(C)C)[C@@H](C)O [Example 28] ({C20 diacid-γGlu}-KCNTATCATQRLANFLRHSSPNFGAIPSSTPVGSETY-NH2; disulfide 2-7 (inferred))
[1]; [2]
  solubility at 18 h: ≥ 200 µM
[1]; [3]
  solubility at 18 h: ≥ 200 µM
[1]; [4]
  solubility at 18 h: ≥ 200 µM
[1]; [5]
  solubility at 18 h: ≥ 200 µM
[1]; [6]
  solubility at 18 h: ≥ 200 µM
[1]; [7]
  solubility at 18 h: ≥ 200 µM
[1]; [8]
  solubility at 18 h: ≥ 200 µM
[1]; [9]
  solubility at 18 h: ≥ 200 µM
Sprague Dawley (SD) rats; 0-24 h
  Food intake reduction 0-24 h 30 nmol/kg (%): 49%
Sprague Dawley (SD) rats; 24-48 h
  Food intake reduction 24-48 h 30 nmol/kg (%): 38%
Rat calcitonin receptor
  pIC50: 7.26

## CC[C@H](C)[C@H](NC(=O)[C@H](C)NC(=O)CNC(=O)[C@H](Cc1ccccc1)NC(=O)[C@H](CC(N)=O)NC(=O)[C@@H]1CCCN1C(=O)[C@H](CO)NC(=O)[C@H](CO)NC(=O)[C@H](Cc1c[nH]cn1)NC(=O)[C@H](CCCNC(=N)N)NC(=O)[C@H](CC(C)C)NC(=O)[C@H](Cc1ccccc1)NC(=O)[C@H](CC(=O)O)NC(=O)[C@H](C)NC(=O)[C@H](CC(C)C)NC(=O)[C@H](CCCNC(=N)N)NC(=O)[C@H](CCC(N)=O)NC(=O)[C@@H](NC(=O)[C@H](C)NC(=O)[C@@H]1CSSC[C@H](NC(=O)[C@@H](N)CCCCNC(=O)CC[C@H](NC(=O)CCCCCCCCCCCCCCCCCCC(=O)O)C(=O)O)C(=O)N[C@@H](CC(N)=O)C(=O)N[C@@H]([C@@H](C)O)C(=O)N[C@@H](C)C(=O)N[C@@H]([C@@H](C)O)C(=O)N1)[C@@H](C)O)C(=O)N1CCC[C@H]1C(=O)N[C@@H](CO)C(=O)N[C@@H](CO)C(=O)N[C@H](C(=O)N[C@@H](CC(N)=O)C(=O)N[C@H](C(=O)NCC(=O)N1CCC[C@H]1C(=O)N[C@@H](CCCNC(=N)N)C(=O)N[C@H](C(=O)N[C@@H](Cc1ccc(O)cc1)C(N)=O)[C@@H](C)O)C(C)C)[C@@H](C)O [Example 129] (H-K([γGlu-C20 diacid])CNTATCATQRLADFLRHSSPNFGAIPSSTNVGPRTY-NH2; disulfide 2-7 (inferred); N-terminus assumed)
[1]; [2]
  solubility at 18 h: ≥ 200 µM
[1]; [3]
  solubility at 18 h: 187 µM (≈ 829 µg/mL)
[1]; [4]
  solubility at 18 h: ≥ 200 µM
[1]; [5]
  solubility at 18 h: ≥ 200 µM
[1]; [6]
  solubility at 18 h: 102 µM (≈ 452 µg/mL)
[1]; [7]
  solubility at 18 h: ≥ 200 µM
[1]; [8]
  solubility at 18 h: ≥ 200 µM
[1]; [9]
  solubility at 18 h: ≥ 200 µM
Rat calcitonin receptor
  pIC50: 7.23
